Measured values from patent US4285940A, “Cephalosporin derivatives, and antibacterial drugs comprising said derivatives” (Eisai Co., Ltd., priority 1979, dated 1981).

Tests used:
[1] = system: Escherichia coli NIHJ; test: MIC by standard agar dilution method of the Japan Society of Chemotherapy; format: cell-based; conditions: Mueller Hinton agar, 18 hours at 37° C., Examples 1, 2, 4 as sodium salts, Example 5 as free acid
Description: (§1) Minimal inhibitory concentration (MIC) was determined by the standard agar dilution method of the Japan Society of Chemotherapy.
(§2) The compounds described in Examples 1, 2 and 4 were dissolved in sterilized water; the compound described in Example 5 was dissolved in acetone-water (1:1); and the control compound, cephaloglycin, was dissolved in a 3% sodium hydrogen carbonate solution.
(§3) Serial two-fold dilutions were made from the above solutions.
(§4) One-ml aliquots of each dilution were mixed with 9 ml of Mueller Hinton agar in petri-dishes to make agar plates containing the compound at serially diluted concentrations. After agar hardened, plates were put in an incubator at 37° C. for 1.5-2 hours with the lids slightly open to evaporate acetone off the plates.
(§5) Test organisms were grown for 18 hours at 37° C. in Trypticase Soy broth and diluted in saline to approximately 10^6 colony forming units per ml. A loopful of each cell suspension was applied on the agar plate mentioned above and the plates were incubated for 18 hours at 37° C. before MIC was determined.
(§6) MIC values of the compounds described in Examples 1, 2 and 4 were determined as their sodium salts and the compound described in Example 5 was determined as a free carboxylic acid.

[2] = system: Klebsiella pneumoniae EK-6; test: as above; format: cell-based; conditions: EK6, Mueller Hinton agar, 18 hours at 37° C., Examples 1, 2, 4 as sodium salts, Example 5 as free acid
Description: as §1, §2, §3, §4, §5, §6

[3] = system: Proteus morganii EP-14; test: as above; format: cell-based; conditions: Morganella morganii, EP14, Mueller Hinton agar, 18 hours at 37° C., Examples 1, 2, 4 as sodium salts, Example 5 as free acid
Description: as §1, §2, §3, §4, §5, §6

[4] = system: Pseudomonas aeruginosa EP-172; test: as above; format: cell-based; conditions: EP172, Mueller Hinton agar, 18 hours at 37° C., Examples 1, 2, 4 as sodium salts, Example 5 as free acid
Description: as §1, §2, §3, §4, §5, §6

[5] = system: Serratia marcescens ES-75; test: as above; format: cell-based; conditions: ES75, Mueller Hinton agar, 18 hours at 37° C., Examples 1, 2, 4 as sodium salts, Example 5 as free acid
Description: as §1, §2, §3, §4, §5, §6

[6] = system: Staphylococcus aureus 209P; test: as above; format: cell-based; conditions: Mueller Hinton agar, 18 hours at 37° C., Examples 1, 2, 4 as sodium salts, Example 5 as free acid
Description: as §1, §2, §3, §4, §5, §6

[7] = acute toxicity (mouse, oral administration); conditions: in vivo

Compound	MIC [1] [µg/mL]	MIC [2] [µg/mL]	MIC [3] [µg/mL]	MIC [4] [µg/mL]	MIC [5] [µg/mL]	MIC [6] [µg/mL]	LD50 [7] [mg/kg]
CC(=O)OCC1=C(C(=O)O)N2C(=O)[C@@H](NC(=O)[C@H](N)c3ccccc3)[C@H]2SC1 [Cephaloglycin, cephaloglycin, reference compound]	3.13	1.56	25	100	100	0.8	–
CC(=O)OCC1=C(C(=O)O)N2C(=O)[C@@H](NC(=O)[C@H](NC(=O)c3coc4cc(O)c(O)cc4c3=O)c3ccc(O)cc3)[C@H]2SC1 [Example 1, 7β-[D-2-(6,7-Dihydroxychromone-3-carboxamido)-2-(4-hydroxyphenyl)acetamido]-3-acetoxymethyl-3-cephem-4-carboxylic acid]	3.13	0.2	50	3.13	3.13	3.13	> 5000
CC(=O)OCC1=C(C(=O)O)N2C(=O)[C@@H](NC(=O)[C@H](NC(=O)c3coc4cc(OC(C)=O)c(OC(C)=O)cc4c3=O)c3ccc(O)cc3)[C@H]2SC1 [Example 2, 7β-[D-2-(6,7-Diacetoxychromone-3-carboxamido)-2-(4-hydroxyphenyl)acetamido]-3-acetoxymethyl-3-cephem-4-carboxylic acid]	12.5	0.2	100	3.13	6.25	6.25	> 5000
CC(=O)OCC1=C(C(=O)O)N2C(=O)[C@@H](NC(=O)[C@H](NC(=O)c3coc4c(O)c(O)ccc4c3=O)c3ccc(O)cc3)[C@H]2SC1 [Example 4, 7β-[D-2-(7,8-Dihydroxychromone-3-carboxamido)-2-(4-hydroxyphenyl)acetamido]-3-acetoxymethyl-3-cephem-4-carboxylic acid]	12.5	0.2	100	1.56	100	0.8	–
CC(=O)OCC1=C(C(=O)O)N2C(=O)[C@@H](NC(=O)[C@H](NC(=O)c3coc4c(OC(C)=O)c(OC(C)=O)ccc4c3=O)c3ccc(O)cc3)[C@H]2SC1 [Example 5, 7β-[D-2-(7,8-Diacetoxychromone-3-carboxamido)-2-(4-hydroxyphenyl)acetamido]-3-acetoxymethyl-3-cephem-4-carboxylic acid]	3.13	0.4	25	3.13	25	6.25	–
